Measurements published in ChEMBL document CHEMBL1201862, “PubChem BioAssay data set” (2004).
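Cultured in 96-well plates, cells were exposed to test compound for 48 hours across five concentrations. At the GI50, growth is halved.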 The source made the active and inactive calls. No stated cut-off is given here; in the data, active = GI50 up to about 1.1 µM and inactive = higher.

Tests used:
Assay in all cases: inhibition of tumour cell growth, NCI panel, 48 h
HT-29 = test system: HT-29
CCRF-CEM = test system: CCRF-CEM
NCI-H522 = test system: NCI-H522
RPMI-8226 = test system: RPMI-8226
HL-60 = test system: HL-60
SF-268 = test system: SF-268
UACC-62 = test system: UACC-62
786-0 = test system: 786-0
KM12 = test system: KM12
SK-MEL-5 = test system: SK-MEL-5
OVCAR-8 = test system: OVCAR-8
HCT-116 = test system: HCT-116
SK-MEL-28 = test system: SK-MEL-28
SK-MEL-2 = test system: SK-MEL-2

Measured: GI50

CC1(C)CCc2cc3c(cc2O1)OCC1c2cc4c(cc2OC31)OCO4 (stereo not given)
inactive: HT-29 > 100 µM | CCRF-CEM > 100 µM | NCI-H522 > 100 µM | RPMI-8226 > 100 µM | HL-60 35.5 µM | SF-268 > 100 µM | UACC-62 > 100 µM | 786-0 > 100 µM | KM12 > 100 µM | SK-MEL-5 39.9 µM | OVCAR-8 > 100 µM | HCT-116 > 100 µM

CN(C)c1c([O-])c(=[N+](C)C)c1=O
inactive: HT-29 > 100 µM | CCRF-CEM > 100 µM | NCI-H522 > 100 µM | HL-60 > 100 µM | SF-268 > 100 µM | UACC-62 > 100 µM | SK-MEL-28 > 100 µM | 786-0 > 100 µM | SK-MEL-2 > 100 µM | KM12 > 100 µM | OVCAR-8 > 100 µM | HCT-116 > 100 µM

O=C1CC2C(=O)N(Cc3ccccc3)C1C=C2S(=O)(=O)c1ccccc1 (stereo not given)
inactive: HT-29 > 100 µM | CCRF-CEM > 100 µM | NCI-H522 > 100 µM | HL-60 > 100 µM | SF-268 > 100 µM | UACC-62 > 100 µM | SK-MEL-28 > 100 µM | 786-0 > 100 µM | KM12 > 100 µM | SK-MEL-5 > 100 µM | OVCAR-8 > 100 µM | HCT-116 > 100 µM

N#CCc1nnc(N)o1
inactive: CCRF-CEM > 100 µM | NCI-H522 > 100 µM | RPMI-8226 > 100 µM | HL-60 > 100 µM | SF-268 > 100 µM | UACC-62 > 100 µM | SK-MEL-28 > 100 µM | 786-0 > 100 µM | SK-MEL-2 > 100 µM | KM12 > 100 µM | HCT-116 > 100 µM

O=C(COc1ccc(Cl)cc1)N1N=C(c2ccc([N+](=O)[O-])o2)CC1(O)c1ccccc1 (stereo not given)
inactive: HT-29 4.81 µM | NCI-H522 15.5 µM | RPMI-8226 2.28 µM | HL-60 1.77 µM | SF-268 10.5 µM | UACC-62 3.87 µM | SK-MEL-28 12.2 µM | 786-0 7.62 µM | SK-MEL-2 7.24 µM | KM12 6.58 µM | OVCAR-8 5.62 µM | HCT-116 5.27 µM

CCCCCCCc1cc(OC(=O)c2c(C)cc(OC)cc2O)cc(O)c1C(=O)O
inactive: HT-29 32.5 µM | CCRF-CEM 24.7 µM | NCI-H522 23.8 µM | RPMI-8226 22.6 µM | HL-60 26.5 µM | SF-268 20.2 µM | UACC-62 21 µM | SK-MEL-28 20.1 µM | 786-0 19 µM | SK-MEL-2 19.1 µM | KM12 23.1 µM | SK-MEL-5 21.6 µM | OVCAR-8 27.1 µM

NNC(=S)N/N=C(/C(=O)Nc1cc(Cl)ccc1Cl)C1C(=O)Nc2ccccc2[S+]1[O-] (stereo not given)
inactive: HT-29 > 100 µM | CCRF-CEM > 100 µM | NCI-H522 68.9 µM | HL-60 > 100 µM | SF-268 > 100 µM | UACC-62 > 100 µM | SK-MEL-28 > 100 µM | 786-0 > 100 µM | SK-MEL-2 > 100 µM | KM12 > 100 µM | SK-MEL-5 > 100 µM | OVCAR-8 > 100 µM | HCT-116 > 100 µM

CC(C)(C)OC1=C(OC(C)(C)C)C(O)(c2ccc(Cl)cc2)C1=O (stereo not given)
inactive: HT-29 > 100 µM | CCRF-CEM > 100 µM | RPMI-8226 > 100 µM | HL-60 > 100 µM | SF-268 > 100 µM | UACC-62 > 100 µM | SK-MEL-28 > 100 µM | 786-0 > 100 µM | KM12 > 100 µM | SK-MEL-5 > 100 µM | OVCAR-8 > 100 µM

C=C1CC(c2ccc(O)c(OC)c2)Oc2c(OC)cccc21 (stereo not given)
inactive: HT-29 55 µM | CCRF-CEM 23.8 µM | NCI-H522 10.7 µM | HL-60 13 µM | SF-268 33 µM | UACC-62 35.4 µM | SK-MEL-28 43.5 µM | 786-0 58.9 µM | KM12 33.7 µM | SK-MEL-5 35.7 µM | OVCAR-8 31.1 µM | HCT-116 31.2 µM

CC(C)(C)C1(O)Cc2ccccc2C(=O)O1 (stereo not given)
inactive: HT-29 > 100 µM | CCRF-CEM > 100 µM | NCI-H522 > 100 µM | HL-60 > 100 µM | SF-268 > 100 µM | UACC-62 > 100 µM | SK-MEL-28 > 100 µM | 786-0 > 100 µM | SK-MEL-2 > 100 µM | KM12 > 100 µM | SK-MEL-5 > 100 µM | OVCAR-8 > 100 µM | HCT-116 > 100 µM

CCN1CCC(O)(c2ccc(OC)cc2)C(C(=O)c2ccc(OC)cc2)C1 (stereo not given)
inactive: HT-29 22 µM | NCI-H522 1.97 µM | RPMI-8226 4.25 µM | HL-60 15.9 µM | SF-268 20.6 µM | UACC-62 16.9 µM | SK-MEL-28 3.25 µM | 786-0 13.3 µM | SK-MEL-2 19.6 µM | KM12 20.5 µM | SK-MEL-5 15.3 µM | OVCAR-8 22.3 µM | HCT-116 22.8 µM

Cc1c(CCl)c(=O)oc2c(C)c3occ(CCl)c(=O)c3cc12
inactive: CCRF-CEM 3.18 µM | NCI-H522 13.4 µM | RPMI-8226 8.69 µM | HL-60 4.72 µM | SF-268 24.7 µM | UACC-62 16.3 µM | SK-MEL-28 17.5 µM | 786-0 > 100 µM | SK-MEL-2 > 100 µM | KM12 > 100 µM | SK-MEL-5 > 100 µM | OVCAR-8 > 100 µM

C=C1C[C@]23CCC4C(C)(C)C(=O)CC[C@]4(C)C2C[C@H]1C(O)C3=O (stereo not given in full)
inactive: CCRF-CEM > 75 µM | NCI-H522 > 75 µM | RPMI-8226 > 75 µM | HL-60 > 75 µM | SF-268 > 75 µM | UACC-62 > 75 µM | SK-MEL-28 > 75 µM | 786-0 > 75 µM | SK-MEL-2 > 75 µM | KM12 > 75 µM | SK-MEL-5 > 75 µM | OVCAR-8 > 75 µM

Cc1cc2c3ccccc3n(C)c2c2c1C(=O)c1ccccc1C2=O
inactive: HT-29 24.9 µM | CCRF-CEM 5.18 µM | NCI-H522 16.7 µM | RPMI-8226 6.3 µM | HL-60 7.82 µM | SF-268 25 µM | UACC-62 20.8 µM | SK-MEL-28 18.6 µM | 786-0 16.5 µM | SK-MEL-2 20 µM | KM12 28.2 µM | OVCAR-8 19.2 µM | HCT-116 14.8 µM

CCOC(=O)Cc1csc(Nc2ccc(OCC)cc2)n1
inactive: HT-29 > 100 µM | NCI-H522 > 100 µM | RPMI-8226 > 100 µM | HL-60 > 100 µM | SF-268 > 100 µM | SK-MEL-28 > 100 µM | 786-0 > 100 µM | SK-MEL-2 > 100 µM | KM12 > 100 µM | OVCAR-8 > 100 µM | HCT-116 > 100 µM

O=C(NCCS(=O)(=O)N1C(=O)C2CCCN2C(=O)[C@@H]1Cc1ccccc1)OCc1ccccc1 (stereo not given in full)
inactive: HT-29 42.8 µM | CCRF-CEM 45.4 µM | NCI-H522 24.7 µM | RPMI-8226 23.3 µM | HL-60 24.2 µM | SF-268 45.6 µM | UACC-62 40 µM | SK-MEL-28 78.3 µM | 786-0 78.9 µM | KM12 44.2 µM | SK-MEL-5 47.4 µM | OVCAR-8 69.8 µM | HCT-116 39.5 µM
